In US20050197350A1, “Novel quinoline, tetrahydroquinazoline, and pyrimidine derivatives and methods of treatment related to the use thereof” (TAISHO PHARMACEUTICAL CO., LTD., priority 2003, published 2005) one finds class data, which are given here for 39 compounds.

The subject of the assay is MCH receptors. The assay is described as follows: MCH receptor activity class (method not given). The settings on record: class by percent of control at 10^-7 M or IC50.

For the compound `CCc1ccc(NC(=O)N[C@H]2CC[C@@H](Nc3nc4c(c(N(C)C)n3)CCCC4)CC2)cc1` [compound 1824], the class is recorded as 3 (Class 3 The value of percent of control at 10^−7 M was more than 60% or the value of IC50 was more than 200 nM.).

On to `CCNC(=O)N[C@H]1CC[C@@H](Nc2nc3c(c(N(C)C)n2)CCCC3)CC1` [compound 1825], for which the class is on record as 3 (Class 3 The value of percent of control at 10^−7 M was more than 60% or the value of IC50 was more than 200 nM.).

Consider `CN(C)c1nc(N[C@H]2CC[C@@H](NC(=O)Nc3ccc(F)c([N+](=O)[O-])c3)CC2)nc2c1CCCC2` [compound 1826], for which the class is reported as 3 (Class 3 The value of percent of control at 10^−7 M was more than 60% or the value of IC50 was more than 200 nM.).

With `CN(C)c1nc(N[C@H]2CC[C@@H](NC(=O)Nc3cccc(F)c3)CC2)nc2c1CCCC2` [compound 1827], the class is 3 (Class 3 The value of percent of control at 10^−7 M was more than 60% or the value of IC50 was more than 200 nM.).

Take `CN(C)c1nc(N[C@H]2CC[C@@H](NC(=O)Nc3ccccc3F)CC2)nc2c1CCCC2` [compound 1828]: the class is listed as 3 (Class 3 The value of percent of control at 10^−7 M was more than 60% or the value of IC50 was more than 200 nM.).

In the case of `CC(C)c1ccc(NC(=O)N[C@H]2CC[C@@H](Nc3nc4c(c(N(C)C)n3)CCCC4)CC2)cc1` [compound 1829], the class is on record as 3 (Class 3 The value of percent of control at 10^−7 M was more than 60% or the value of IC50 was more than 200 nM.).

Take `CC(C)NC(=O)N[C@H]1CC[C@@H](Nc2nc3c(c(N(C)C)n2)CCCC3)CC1` [compound 1830]: the class was 3 (Class 3 The value of percent of control at 10^−7 M was more than 60% or the value of IC50 was more than 200 nM.).

Consider `COc1ccc(NC(=O)N[C@H]2CC[C@@H](Nc3nc4c(c(N(C)C)n3)CCCC4)CC2)cc1` [compound 1831], for which the class is listed as 3 (Class 3 The value of percent of control at 10^−7 M was more than 60% or the value of IC50 was more than 200 nM.).

`Cc1ccc(NC(=O)N[C@H]2CC[C@@H](Nc3nc4c(c(N(C)C)n3)CCCC4)CC2)c([N+](=O)[O-])c1` [compound 1832]: the class was 3 (Class 3 The value of percent of control at 10^−7 M was more than 60% or the value of IC50 was more than 200 nM.).

As to `COc1ccccc1NC(=O)N[C@H]1CC[C@@H](Nc2nc3c(c(N(C)C)n2)CCCC3)CC1` [compound 1833], the class was 3 (Class 3 The value of percent of control at 10^−7 M was more than 60% or the value of IC50 was more than 200 nM.).

In the case of `COc1cccc(NC(=O)N[C@H]2CC[C@@H](Nc3nc4c(c(N(C)C)n3)CCCC4)CC2)c1` [compound 1834], the class is on record as 3 (Class 3 The value of percent of control at 10^−7 M was more than 60% or the value of IC50 was more than 200 nM.).

`COc1ccc(CNC(=O)N[C@H]2CC[C@@H](Nc3nc4c(c(N(C)C)n3)CCCC4)CC2)cc1` [compound 1835]: the class is 3 (Class 3 The value of percent of control at 10^−7 M was more than 60% or the value of IC50 was more than 200 nM.).

For `Cc1cccc(CNC(=O)N[C@H]2CC[C@@H](Nc3nc4c(c(N(C)C)n3)CCCC4)CC2)c1` [compound 1836], the class is listed as 3 (Class 3 The value of percent of control at 10^−7 M was more than 60% or the value of IC50 was more than 200 nM.).

With `CCCNC(=O)N[C@H]1CC[C@@H](Nc2nc3c(c(N(C)C)n2)CCCC3)CC1` [compound 1837], the class is listed as 3 (Class 3 The value of percent of control at 10^−7 M was more than 60% or the value of IC50 was more than 200 nM.).

Take `CN(C)c1nc(N[C@H]2CC[C@@H](NC(=O)Nc3cccc(C(F)(F)F)c3)CC2)nc2c1CCCC2` [compound 1838]: the class is given as 3 (Class 3 The value of percent of control at 10^−7 M was more than 60% or the value of IC50 was more than 200 nM.).

`CCO[Si](CCCNC(=O)N[C@H]1CC[C@@H](Nc2nc3c(c(N(C)C)n2)CCCC3)CC1)(OCC)OCC` [compound 1839]: the class is 3 (Class 3 The value of percent of control at 10^−7 M was more than 60% or the value of IC50 was more than 200 nM.).

With `Cc1cccc(NC(=O)N[C@H]2CC[C@@H](Nc3nc4c(c(N(C)C)n3)CCCC4)CC2)c1` [compound 1840], the class is on record as 3 (Class 3 The value of percent of control at 10^−7 M was more than 60% or the value of IC50 was more than 200 nM.).

As to `Cc1ccc(NC(=O)N[C@H]2CC[C@@H](Nc3nc4c(c(N(C)C)n3)CCCC4)CC2)cc1Cl` [compound 1841], the class is on record as 3 (Class 3 The value of percent of control at 10^−7 M was more than 60% or the value of IC50 was more than 200 nM.).

Consider `CC(NC(=O)NC1CCC(Nc2nc3c(c(N(C)C)n2)CCCC3)CC1)c1cccc2ccccc12` (stereo not drawn) [compound 1842], for which the class is listed as 3 (Class 3 The value of percent of control at 10^−7 M was more than 60% or the value of IC50 was more than 200 nM.).

For `CN(C)c1nc(N[C@H]2CC[C@@H](NC(=O)Nc3ccccc3OC(F)F)CC2)nc2c1CCCC2` [compound 1843], the class was 3 (Class 3 The value of percent of control at 10^−7 M was more than 60% or the value of IC50 was more than 200 nM.).

For the compound `COC(=O)c1ccccc1NC(=O)N[C@H]1CC[C@@H](Nc2nc3c(c(N(C)C)n2)CCCC3)CC1` [compound 1844], the class is listed as 3 (Class 3 The value of percent of control at 10^−7 M was more than 60% or the value of IC50 was more than 200 nM.).

As for `CSc1ccccc1NC(=O)N[C@H]1CC[C@@H](Nc2nc3c(c(N(C)C)n2)CCCC3)CC1` [compound 1845], the class is listed as 3 (Class 3 The value of percent of control at 10^−7 M was more than 60% or the value of IC50 was more than 200 nM.).

For the compound `CN(C)c1nc(N[C@H]2CC[C@@H](NC(=O)Nc3cc(Cl)c(Cl)cc3Cl)CC2)nc2c1CCCC2` [compound 1846], the class is reported as 2 (Class 2: The value of percent of control at 10^−7 M was from 40% to 60% or the value of IC′50 was from 50 nM to 200 nM.).

Turning to `Cc1ccc(NC(=O)N[C@H]2CC[C@@H](Nc3nc4c(c(N(C)C)n3)CCCC4)CC2)c(C)c1` [compound 1847], the class is listed as 3 (Class 3 The value of percent of control at 10^−7 M was more than 60% or the value of IC50 was more than 200 nM.).

For the compound `CN(C)c1nc(N[C@H]2CC[C@@H](NC(=O)Nc3cc(F)ccc3F)CC2)nc2c1CCCC2` [compound 1848], the class is listed as 3 (Class 3 The value of percent of control at 10^−7 M was more than 60% or the value of IC50 was more than 200 nM.).

On to `COc1ccc(OC)c(NC(=O)N[C@H]2CC[C@@H](Nc3nc4c(c(N(C)C)n3)CCCC4)CC2)c1` [compound 1849, N-(2,5-dimethoxyphenyl)-N′-(cis-4-{[4-(dimethylamino)-5,6,7,8-tetrahydroquinazolin-2-yl]amino}cyclohexyl)urea], for which the class is 2 (Class 2: The value of percent of control at 10^−7 M was from 40% to 60% or the value of IC′50 was from 50 nM to 200 nM.).

In the case of `Cc1ccc(C)c(NC(=O)N[C@H]2CC[C@@H](Nc3nc4c(c(N(C)C)n3)CCCC4)CC2)c1` [compound 1850], the class was 3 (Class 3 The value of percent of control at 10^−7 M was more than 60% or the value of IC50 was more than 200 nM.).

In the case of `CN(C)c1nc(N[C@H]2CC[C@@H](NC(=O)Nc3ccccc3Cc3ccccc3)CC2)nc2c1CCCC2` [compound 1851], the class is 3 (Class 3 The value of percent of control at 10^−7 M was more than 60% or the value of IC50 was more than 200 nM.).

Turning to `CN(C)c1nc(N[C@H]2CC[C@@H](NC(=O)Nc3c(F)cc(F)cc3Br)CC2)nc2c1CCCC2` [compound 1852], the class was 3 (Class 3 The value of percent of control at 10^−7 M was more than 60% or the value of IC50 was more than 200 nM.).

Consider `CN(C)c1nc(N[C@H]2CC[C@@H](NC(=O)Nc3ccc(C(F)(F)F)cc3Cl)CC2)nc2c1CCCC2` [compound 1853], for which the class is 3 (Class 3 The value of percent of control at 10^−7 M was more than 60% or the value of IC50 was more than 200 nM.).

Consider `CN(C)c1nc(N[C@H]2CC[C@@H](NC(=O)Nc3ccc([N+](=O)[O-])cc3Cl)CC2)nc2c1CCCC2` [compound 1854], for which the class is on record as 3 (Class 3 The value of percent of control at 10^−7 M was more than 60% or the value of IC50 was more than 200 nM.).

Take `CN(C)c1nc(N[C@H]2CC[C@@H](NC(=O)Nc3cc(C(F)(F)F)ccc3Cl)CC2)nc2c1CCCC2` [compound 1855]: the class is listed as 3 (Class 3 The value of percent of control at 10^−7 M was more than 60% or the value of IC50 was more than 200 nM.).

As for `Cc1ccc(Cl)c(NC(=O)N[C@H]2CC[C@@H](Nc3nc4c(c(N(C)C)n3)CCCC4)CC2)c1` [compound 1856], the class was 3 (Class 3 The value of percent of control at 10^−7 M was more than 60% or the value of IC50 was more than 200 nM.).

For `CCOC(=O)c1ccccc1NC(=O)N[C@H]1CC[C@@H](Nc2nc3c(c(N(C)C)n2)CCCC3)CC1` [compound 1857], the class is on record as 3 (Class 3 The value of percent of control at 10^−7 M was more than 60% or the value of IC50 was more than 200 nM.).

With `CN(C)c1nc(N[C@H]2CC[C@@H](NC(=O)Nc3cccc(C(F)(F)F)c3F)CC2)nc2c1CCCC2` [compound 1858], the class was 3 (Class 3 The value of percent of control at 10^−7 M was more than 60% or the value of IC50 was more than 200 nM.).

Turning to `CN(C)c1nc(N[C@H]2CC[C@@H](NC(=O)Nc3cc(C(F)(F)F)ccc3F)CC2)nc2c1CCCC2` [compound 1859], the class was 3 (Class 3 The value of percent of control at 10^−7 M was more than 60% or the value of IC50 was more than 200 nM.).

Turning to `Cc1ccc(F)c(NC(=O)N[C@H]2CC[C@@H](Nc3nc4c(c(N(C)C)n3)CCCC4)CC2)c1` [compound 1860], the class is recorded as 3 (Class 3 The value of percent of control at 10^−7 M was more than 60% or the value of IC50 was more than 200 nM.).

For the compound `COc1cc([N+](=O)[O-])ccc1NC(=O)N[C@H]1CC[C@@H](Nc2nc3c(c(N(C)C)n2)CCCC3)CC1` [compound 1861], the class is 3 (Class 3 The value of percent of control at 10^−7 M was more than 60% or the value of IC50 was more than 200 nM.).

For `COc1ccc([N+](=O)[O-])cc1NC(=O)N[C@H]1CC[C@@H](Nc2nc3c(c(N(C)C)n2)CCCC3)CC1` [compound 1862], the class is reported as 3 (Class 3 The value of percent of control at 10^−7 M was more than 60% or the value of IC50 was more than 200 nM.).
